Structures can show the parent of a compound that is named as a salt.

The subject of the first assay is MCF-7 breast cancer cell line. Put plainly: MCF-7 breast cancer cell proliferation assay (cell counting after about 72 hours). The format is cell-based, human. The following applies: Table 1, Structure II compounds group; about 72 hours incubation, HCl salts; read-out: IC50 (micromolar scale) MCF-7 breast cancer cell line. On the procedure:
MCF-7 (ATCC HTB-22) cells, purchased from ATCC (Rockville, Md.), were grown in RPMI medium 1640 with 10% FBS (GIBCO, Grand Island, N.Y.) and 1% Antibiotic-Antimycotic (GIBCO, Grand Island, N.Y.) in an incubator (NUAIRE NU-1500, Plymouth, Minn.) with 5% CO2 and 95% air at about 37° Celsius. Cells were grown as monolayer, doubling time is from about 19 to about 24 hours. The stock solution of the test compound was prepared at 1 mg/ml drug concentration. The stock solution was diluted serially to obtain the desired drug concentrations, of from about 20 to about 200 μg/ml. Plates with twelve wells (5 ml capacity/well) were employed for all the experiments. In a typical experiment, each well contained 1×10^5 initial cells and about 100 μl drug solution in a total volume of about 2 ml media. The final concentrations of compounds were from about 0 to about 100 μg/ml in triplicate sample wells. The plates were incubated at 5% CO2 and 37° C. for about 72 hours. After incubation, cells were washed with PBS 1×, treated by 0.5 ml trypsin-EDTA for about 10 minutes and the cells were suspended by adding about 1.5 ml medium. Cells were counted by using a hemacytometer under a microscope. The data was converted to micromolar concentration using the various molecular weights and represent the mean values and standard errors.
Tables 1-4 illustrate the IC50 (50% inhibitory concentration) values of compounds described in this application against the MCF-7 breast cancer cell line.
What is called IC50 is the midpoint of a concentration-inhibition curve. `CC(C)N(CCOc1ccc2c(c1)CC[C@@H]1[C@@H]2CC[C@]2(C)[C@@H](O)CC[C@@H]12)C(C)C` [(17β)-3-[2-diisopropylamino]-ethoxy]-]-Δ^1,3,5(10)-estrien-17-ol]: the IC50 came to 5.6 µM.

Consider `C[C@]12CC[C@@H]3c4ccc(OCCN5CCCCC5)cc4CC[C@H]3[C@@H]1CC[C@@H]2O` [(17β)-3-[2-piperidinyl]-ethoxy]-]-Δ^1,3,5(10)-estrien-17-ol], for which the IC50 was determined as 4.1 µM.

As for `CN(C)CCOc1ccc2c(c1)CC[C@@H]1[C@@H]2CC[C@]2(C)[C@@H](O)CC[C@@H]12` [(17β)-3-[2-dimethylamino]-ethoxy]-Δ^1,3,5(10)-estrien-17-ol], the IC50 is 16.2 µM.

For `CC/C(=C(\c1ccc(O)cc1)c1ccc(OCCN(C)C)cc1)c1ccccc1` [4-Hydroxytamoxifen HCl salt, Trans-4-Hydroxytamoxifen, reference compound], the IC50 was determined as 9 µM.

In the case of `CCN(CC)CCOc1ccc2c(c1)CC[C@@H]1[C@@H]2CC[C@]2(C)[C@@H](O)CC[C@@H]12` [(17β)-3-[2-diethylamino]-ethoxy]-]-Δ^1,3,5(10)-estrien-17-ol], the IC50 was 8.7 µM.

With `C[C@]12CC[C@@H]3c4ccc(OCCN5CCOCC5)cc4CC[C@H]3[C@@H]1CC[C@@H]2O` [(17β)-3-[2-morpholinyl]-ethoxy]-]-Δ^1,3,5(10)-estrien-17-ol], the IC50 turned out to be 19.8 µM.

Take `C[C@]12CC[C@@H]3c4ccc(OCCN5CCCC5)cc4CC[C@H]3[C@@H]1CC[C@@H]2O` [(17β)-3-[2-pyrrolidinylamino]-ethoxy]-]-Δ^1,3,5(10)-estrien-17-ol]: the 50% inhibitory concentration (IC50) was determined as 10.8 µM.

The assay is the same for the next values; noted with them: Table 2, Structure III compounds group; about 72 hours incubation, HCl salts; read-out: IC50 (micromolar scale) MCF-7 breast cancer cell line.
As to `C#CC1(O)CCC2C3CCc4cc(OCCN(C(C)C)C(C)C)ccc4C3CCC21C` (stereo not drawn) [3-[2-diisopropylamino]-ethoxy]-]-Δ^1,3,5(10)-estrien-17α-ethynyl-17β-ol], the IC50 turned out to be 8.3 µM.

Turning to `C#CC1(O)CCC2C3CCc4cc(OCCN5CCCCC5)ccc4C3CCC21C` (stereo not drawn) [3-[2-piperidinyl]-ethoxy]-]-Δ^1,3,5(10)-estrien-17α-ethynyl-17β-ol], the IC50 came to 6.1 µM.

With `CC/C(=C(\c1ccc(O)cc1)c1ccc(OCCN(C)C)cc1)c1ccccc1` [4-Hydroxytamoxifen HCl salt, Trans-4-Hydroxytamoxifen, reference compound], the IC50 turned out to be 9.5 µM.

In the case of `C#C[C@]1(O)CC[C@H]2[C@@H]3CCc4cc(OCCN(CC)CC)ccc4[C@H]3CC[C@@]21C` [3-[2-diethylamino]-ethoxy]-]-Δ^1,3,5(10)-estrien-17α-ethynyl-17β-ol], the IC50 was found to be 7.3 µM.

As to `C#CC1(O)CCC2C3CCc4cc(OCCN(C)C)ccc4C3CCC21C` (stereo not drawn) [3-[2-dimethylamino]-ethoxy]-]-Δ^1,3,5(10)-estrien-17α-ethynyl-17β-ol], the IC50 turned out to be 9.1 µM.

For the molecule “3-[2-pyrrolidinylamino]-ethoxy]-]-Δ^1,3,5(10)-estrien-17α-ethynyl-17βol”, the IC50 is 6.4 µM.

`C#CC1(O)CCC2C3CCc4cc(OCCN5CCOCC5)ccc4C3CCC21C` (stereo not drawn) [3-[2-morpholinyl]-ethoxy]-]-Δ^1,3,5(10)-estrien-17α-ethynyl-17β-ol]: the IC50 came out at 21.5 µM.

The assay is the same for the next values; noted with them: Table 3, Structure IV compounds group; about 72 hours incubation, HCl salts; read-out: IC50 (micromolar scale) MCF-7 breast cancer cell line.
On to `C[C@]12CC[C@@H]3c4ccc(OCCN5CCOCC5)cc4CC[C@H]3[C@@H]1CCC2=O` [3-[2-morpholinyl]-ethoxy]-]-Δ^1,3,5(10)-estrien-17-one], for which the IC50 came to 20.8 µM.

`C[C@]12CC[C@@H]3c4ccc(OCCN5CCCCC5)cc4CC[C@H]3[C@@H]1CCC2=O` [3-[2-piperidinyl]-ethoxy]-]-Δ^1,3,5(10)-estrien-17-one]: the IC50 is 5.1 µM.

`CC(C)N(CCOc1ccc2c(c1)CC[C@@H]1[C@@H]2CC[C@]2(C)C(=O)CC[C@@H]12)C(C)C` [3-[2-diisopropylamino]-ethoxy]-]-Δ^1,3,5(10)-estrien-17-one]: the IC50 was found to be 9.2 µM.

Turning to “3-[2-pyrrolidinylamino]-ethoxy]-]-Δ^1,3,5(10)-estrien-17-one”, the IC50 turned out to be 10.6 µM.

In the case of `CC/C(=C(\c1ccc(O)cc1)c1ccc(OCCN(C)C)cc1)c1ccccc1` [4-Hydroxytamoxifen HCl salt, Trans-4-Hydroxytamoxifen, reference compound], the IC50 was determined as 10.6 µM.

As to `CCN(CC)CCOc1ccc2c(c1)CC[C@@H]1[C@@H]2CC[C@]2(C)C(=O)CC[C@@H]12` [3-[2-diethylamino]-ethoxy]-]-Δ^1,3,5(10)-estrien-17-one], the IC50 worked out at 7.5 µM.

Turning to `CN(C)CCOc1ccc2c(c1)CC[C@@H]1[C@@H]2CC[C@]2(C)C(=O)CC[C@@H]12` [3-[2-dimethylamino]-ethoxy]-]-Δ^1,3,5(10)-estrien-17-one], the IC50 turned out to be 37.8 µM.

The test system of the next assay is advanced breast cancer.
Test: not given
As to conditions: tamoxifen 20 mg/day; cited from earlier work.
For `CC/C(=C(\c1ccccc1)c1ccc(OCCN(C)C)cc1)c1ccccc1` [tamoxifen], the response rate is on record as 44%.

Still in this assay, the particulars now being: toremifene 60 mg/day; cited from earlier work.
In the case of `CN(C)CCOc1ccc(/C(=C(/CCCl)c2ccccc2)c2ccccc2)cc1` [toremifene], the response rate is reported as 50%.

Still in this assay, the particulars now being: toremifene 200 mg/day; cited from earlier work.
Consider `CN(C)CCOc1ccc(/C(=C(/CCCl)c2ccccc2)c2ccccc2)cc1` [toremifene], for which the response rate was 48%.

For the next assay, the system named is breast cancer.
Test: not given
The following applies: adjuvant therapy; cited from earlier work.
As for `CN(C)CCOc1ccc(/C(=C(/CCCl)c2ccccc2)c2ccccc2)cc1` [toremifene], the “reduction in the recurrence of breast cancer” value was “not found to exhibit a statistically significant reduction in the recurrence of breast cancer”.

(Values after US7687486B2, “Selective estrogen receptor modulators” (Florida Agricultural & Mechanical University, priority 2003, dated 2010).)
